Results published in US20200237742A1, “Serdexmethylphenidate Conjugates, Compositions And Methods Of Use Thereof” (priority 2018, published 2020).
Where a name gives a salt, the structure may show the parent alone.

Tests used:
[1] = system: recreational stimulant abusers; experiment: Intravenous abuse potential study, VAS pharmacodynamic assessments; type: in vivo, human
Source text: “Drug liking” score, used herein, is the score used to assess the degree that a human participant likes a drug effect at the time the question is being asked (that is, at the moment). It is scored using a 0 to 100 point bipolar visual analogue scale (VAS) anchored in the center with a neutral anchor of “neither like nor dislike” (score of 50), on the left with “strong disliking” (score of 0) and on the right with “strong liking” (score of 100).
“Euphoria” or “Feeling High” score, used herein, is the term to describe the score used to assess the degree that a human participant is high at the time the question is being asked (that is, at the moment). It is scored using a 0 to 100 point unipolar visual analogue scale (VAS) anchored on the left with “Not at All” (score of 0) and on the right with “Extremely” (score of 100).
“Take Drug Again” score, used herein, is the term to describe the score used to assess the degree that a human participant wants to take the drug again, if given the opportunity, based on his/her opinion now, i.e., at the time the question is being asked. It is scored using a 0 to 100 point unipolar visual analogue scale (VAS) anchored on the left with “Definitely Would Not” (score of 0) and on the right with “Definitely Would” (score of 100).
“Overall Drug Liking” score, used herein, is the term to describe the score used to assess the human subject's global perception of drug liking (i.e., the subjective effects over the whole course of the drug experience including any carryover effects). Subjects respond to the statement “Overall, my liking for this drug is.” The question is scored using a 0-100 point bipolar VAS anchored on the left with “Strong Disliking” (score of 0); “Neither Like nor Dislike” (score of 50) in the middle, and anchored on the right with “Strong Liking” (score of 100). This scale has the advantage of the human subject being relatively less affected or unaffected by acute study drug effects (if any) by the time of the assessment.
“Good Effects” score, used herein, is the term to describe the score used to assess the degree that a human participant is feeling good drug effects at the time the question is being asked (that is, at the moment). Subjects respond to the statement “At this moment, I can feel good drug effects.” It is scored using a 0 to 100 point unipolar visual analogue scale (VAS) anchored on the left with “Not at All” (score of 0) and on the right with “Extremely” (score of 100).
Safety assessments were performed throughout the study.

[2] = system: healthy, nondependent, recreational stimulant users with intranasal insufflation experience; experiment: Intranasal abuse potential study, VAS pharmacodynamic assessments
Source text: “Ease of Insufflation” VAS is the measure that assesses the difficulty of snorting the study drugs. Subjects will respond to the statement “Snorting this drug was:” The question will be scored using a 0-100 points unipolar VAS anchored on the left with “Very Easy” (score of 0) and anchored on the right with “Very Difficult” (score of 100).
The study consisted of a Screening Period, an in-clinic Drug Discrimination Phase, a Treatment Phase, and a Follow-Up Visit.
Subjects who successfully completed the Screening Period returned to the clinic to complete the Drug Discrimination Phase. […] Subjects who successfully completed the Drug Discrimination Phase remained as inpatients to enter the Treatment Phase. The Drug Discrimination Phase was a double-blind, intranasal, single-dose, 2-treatment, 2-period, 2-sequence, randomized, crossover design.
All subjects were required to fast for at least 8 hours prior to each dose of study drug until approximately 4 hours after each dose. Abuse potential measures and pharmacokinetic samples were collected at different times after the administration of study drug. Subjects who successfully completed the Drug Discrimination Phase and who qualified for the Treatment Phase remained as inpatients to enter the Treatment Phase.
The placebo dose consisted of 80 mg of microcrystalline cellulose to create the same volume.
On dosing days in the Treatment Phase, blood samples were collected for the measurement of the plasma concentrations of SDX, d-methylphenidate (d-MPH), 1-methylphenidate (1-MPH) and ritalinic acid at predose and at 0.25, 0.5, 0.75, 1, 1.5, 2, 3, 4, 5, 6, 7, 8, 9, 10, 12, 16, 24, 36, and 48 hours ±5 minutes after each dose of study drug. […] All VAS pharmacodynamic assessments except Take Drug Again and Overall Drug Liking were performed at 0.25, 0.5, 0.75, 1, 1.5, 2, 3, 4, 5, 6, 7, 8, 10, 12, 24 hours ±5 minutes postdose. In addition, predose assessments of Feeling High, and Drowsiness/Alertness were collected. The Take Drug Again and Overall Drug Liking VAS assessments were performed at 12 and 24 hours ±5 minutes postdose. Ease of Nasal Insufflation scores were completed within 5 minutes after the completion of each intranasal drug administration during the Treatment Phase.

[3] = 12 hours, SDX Cl 30 mg, d-MPH HCl 15 mg
[4] = 12 hours, d-MPH HCl 15 mg vs SDX Cl 30 mg
[5] = 24 hours, d-MPH HCl 15 mg vs SDX Cl 30 mg
[6] = Emax, d-MPH HCl 15 mg vs SDX Cl 30 mg
[7] = d-MPH HCl 15 mg vs SDX Cl 30 mg
[8] = 12 hours, SDX Cl 80 mg, d-MPH HCl 40 mg
[9] = 24 hours, SDX Cl 80 mg, d-MPH HCl 40 mg
[10] = 12 hours, SDX Cl 30 mg vs placebo
[11] = 24 hours, SDX Cl 30 mg vs placebo
[12] = 24 hours, SDX Cl 30 mg, d-MPH HCl 15 mg

**Q.** `COC(=O)[C@H](c1ccccc1)[C@H]1CCCCN1` [d-methylphenidate hydrochloride, d-threo-methylphenidate hydrochloride] was tested. Which “Mean Overall Drug Liking” value [1, 3] did it give?
**A.** Its value is 68.0.

**Q.** What about the “Median Overall Drug Liking” value [1, 3] of the same compound?
**A.** The value was 73.0.

**Q.** What about the “Mean Difference Take Drug Again, B vs A” value [1, 4] of the same compound?
**A.** The value was 43.3.

**Q.** What about the “Overall Drug Liking, Median difference B vs A” value [1, 4] of the same compound?
**A.** The value was 16.0.

**Q.** What about the “Mean Difference Take Drug Again, B vs A” value [1, 5] of the same compound?
**A.** Its value is 39.2.

**Q.** What about the “Overall Drug Liking, Median difference B vs A” value [1, 5] of the same compound?
**A.** The value was 13.5.

**Q.** And the “Mean Difference Take Drug Again, B vs A” value [1, 6]?
**A.** Its value is 43.1.

**Q.** And the “Overall Drug Liking, Median difference B vs A” value [1, 6]?
**A.** Its value is 18.0.

**Q.** What about the “Feeling High Emax, Median difference B vs A” value [1, 7] of the same compound?
**A.** The value was 67.0.

**Q.** And the “Good Effects Emax, Median difference B vs A” value [1, 7]?
**A.** The value was 73.0.

**Q.** And the “Median Difference Drug Liking Emax, B vs A” value ([1]; d-MPH HCl 15 mg vs SDX Cl 30 mg, bipolar VAS)?
**A.** The value was 29.0.

**Q.** What about the “Median Overall Drug Liking” value [2, 8] of the same compound?
**A.** Its value is 87.

**Q.** And the “Median Take Drug Again” value [2, 8]?
**A.** The value was 91.

**Q.** What about the “Median Overall Drug Liking” value [2, 9] of the same compound?
**A.** Its value is 82.

**Q.** And the “Median Take Drug Again” value [2, 9]?
**A.** Its value is 94.

**Q.** What about the “Mean Difference Overall Drug Liking, B vs A” value ([2]; 24 hours, d-MPH HCl 40 mg vs SDX Cl 80 mg) of the same compound?
**A.** The value was “statistically higher”.

**Q.** What does the source list for `COC(=O)[C@H](c1ccccc1)[C@H]1CCCCN1C(=O)OC[n+]1cccc(C(=O)N[C@@H](CO)C(=O)O)c1.[Cl-]` [serdexmethylphenidate chloride]?
**A.** Mean Difference Take Drug Again, A vs C [1, 10]: 9.1; Overall Drug Liking, Mean difference A vs C [1, 10]: 2.8; Median Overall Drug Liking [1, 3]: 50.0; Median Take Drug Again [1, 3]: 0.0; Mean Difference Take Drug Again, A vs C [1, 11]: 1.4; Overall Drug Liking, Mean difference A vs C [1, 11]: 1.2; Median Overall Drug Liking [1, 12]: 50.0; Median Take Drug Again [1, 12]: 0.0; Mean Difference Take Drug Again, A vs C ([1]; Emax, SDX Cl 30 mg vs placebo): 6.0; Overall Drug Liking, Mean difference A vs C ([1]; Emax, SDX Cl 30 mg vs placebo): 1.4; Feeling High Emax, Mean difference A vs C ([1]; SDX Cl 30 mg vs placebo): 3.4; Good Effects Emax, Mean difference A vs C ([1]; SDX Cl 30 mg vs placebo): 2.2; Median Difference Drug Liking Emax, A vs C ([1]; SDX Cl 30 mg vs placebo, bipolar VAS): 0.5; Median Overall Drug Liking [2, 8]: 58; Median Take Drug Again [2, 8]: 51; Mean Overall Drug Liking [2, 9]: 59.0; Median Overall Drug Liking [2, 9]: 55; Median Take Drug Again [2, 9]: 50
